{"source": "patent US20240189311A1", "about": "“Combination Therapy of Obicetrapib and Ezetimibe for Use in Statin Intolerant Patients Suffering from Hyperlipidemia or Mixed Dyslipidaemia” (NEWAMSTERDAM PHARMA B.V., priority 2021, published 2024)", "key": {"[1]": {"tested_on": "low-density lipoprotein cholesterol (LDL-C)", "assay": "Phase 2 study of obicetrapib and ezetimibe in mild dyslipidaemia: LDL-C by Friedewald formula", "assay_type": "in vivo, human", "description": "(§1) Study drugs will be administered by the participant orally and once daily on Days 1 through 57. Study drugs should be administered at approximately the same time each morning, with food. On days with visits scheduled, study drugs should be administered with food following all fasted blood samples. If a participant forgets to take study drug on a given day, they should take the next dose as normal and should not take a double dose to make up for the forgotten dose.\n(§2) Up to 2 weeks after the Screening Visit, participants will return to the site on Day 1 (Visit 2) to be randomized and begin treatment. Approximately 100 eligible participants (25 participants per treatment group) will be randomized in a 1:1:1:1 ratio to 1 of the following treatment groups: • Combination therapy: 5 mg obicetrapib+10 mg ezetimibe; • Obicetrapib monotherapy: 5 mg obicetrapib+placebo ezetimibe; • Ezetimibe monotherapy: placebo obicetrapib+10 mg ezetimibe; or • Placebo: placebo obicetrapib+placebo ezetimibe.\nLDL-C level was collected using the following 2 approaches: • 1. At each scheduled visit, LDL-C level was calculated using the Friedewald formula; and • 2. In addition, at baseline (Day 1) and at the end of the 8-week Treatment Period (Day 57), LDL-C was measured for all participants by preparative ultracentrifugation (PUC). Primary Efficacy Endpoint Primary analysis\nThe primary efficacy analysis of the percent change from Day 1 to Day 57 in LDL-C was performed using a mixed model for repeated measures (MMRM) approach. The analysis included fixed effects for treatment, visit, and treatment-by-visit interaction, along with a covariate of the baseline value as a continuous covariate. Randomization was stratified by categories of LDL-C value (<3.5 mmol/L [<135 mg/dL] or >3.5 mmol/L [≥135 mg/dL]) only to ensure similar distribution of LDL-C across all treatment groups; however, the MMRM model included the original scale of the LDL-C value as a continuous covariate. The Restricted Maximum Likelihood estimation approach was used with an unstructured covariance matrix. The least squares (LS) means, standard errors, and 2-sided 95% confidence intervals (CIs) for each treatment group, for the pairwise comparisons of the combination therapy, obicetrapib monotherapy, and ezetimibe monotherapy to placebo, and for the pairwise comparisons of combination therapy and obicetrapib monotherapy versus ezetimibe monotherapy are provided. The treatment comparison was performed using a 2-sided test at the α=0.05 level of significance.\n(§3) Similar MMRM models were used for the exploratory efficacy endpoints. The proportion of participants at Day 57 that achieved LDL-C<2.6 mmol/L (<100 mg/dL), LDL-C<1.8 mmol/L (<70 mg/dL), and LDL-C<1.3 mmol/L (<50 mg/dL) were examined through Logistic Regression Models for binary variables with covariates of the treatment groups and the baseline variable.\nThis study was a placebo-controlled, double-blind, randomized Phase 2 study in participants with mild dyslipidemia to evaluate the efficacy, safety, and tolerability of obicetrapib and ezetimibe combination therapy. The primary efficacy endpoint was percent change from Day 1 to Day 57 in LDL-C for the obicetrapib 5 mg+ezetimibe 10 mg group compared to the placebo group."}, "apolipoprotein B (ApoB)": {"tested_on": "apolipoprotein B (ApoB)", "assay": "Phase 2 study of obicetrapib and ezetimibe in mild dyslipidaemia: ApoB", "assay_type": "in vivo, human", "description": "as §1, §2\nSimilar MMRM models were developed to examine the percent change from Day 1 to Day 57 in LDL-C (for other pairwise treatment group comparisons beside the analysis specified for the primary efficacy endpoint, using the Friedewald formula) or ApoB. In order to maintain the overall Type 1 error rate, the secondary efficacy endpoints were tested sequentially at the 0.05 significance level according to the pre-specified order of hierarchy. This applied to the following analyses: • Percent change from Day 1 to Day 57 in LDL-C for the obicetrapib monotherapy group compared to the placebo group; • Percent change from Day 1 to Day 57 in ApoB for the combination therapy group compared to the placebo group; • Percent change from Day 1 to Day 57 in ApoB for the obicetrapib monotherapy group compared to the placebo group; • Percent change from Day 1 to Day 57 in LDL-C for combination therapy group compared to the ezetimibe monotherapy group; • Percent change from Day 1 to Day 57 in LDL-C for the obicetrapib monotherapy group compared to the ezetimibe monotherapy group; • Percent change from Day 1 to Day 57 in LDL-C, for the ezetimibe monotherapy group compared to the placebo group; and • Percent change from Day 1 to Day 57 in ApoB for the combination therapy group compared to the ezetimibe monotherapy group."}, "[2]": {"tested_on": "non-high-density lipoprotein cholesterol (non-HDL-C)", "assay": "Phase 2 study: non-HDL-C", "assay_type": "in vivo, human", "details": "Day 57", "method": "as §2, §3"}, "[3]": {"tested_on": "high-density lipoprotein cholesterol (HDL-C)", "assay": "Phase 2 study: HDL-C", "assay_type": "in vivo, human", "details": "Day 57", "method": "as §2, §3"}, "apolipoprotein E (ApoE)": {"tested_on": "apolipoprotein E (ApoE)", "assay": "Phase 2 study: ApoE", "assay_type": "in vivo, human", "details": "Day 57", "method": "as §2, §3"}, "[4]": {"assay": "Phase 2 study: safety and tolerability (adverse events)", "assay_type": "in vivo, human", "description": "The Safety Population included all participants who received at least 1 dose of any study drug. Treatment classification was based on the actual treatment received. The Safety Population was the primary population used for the safety analyses.\nThe Safety Population was the primary population for the safety analyses. All safety endpoints are summarized descriptively. No statistical inference was applied to the safety endpoints.\nAEs were categorized by primary system organ class (SOC) and preferred term (PT) as coded using the Medical Dictionary for Regulatory Activities (version 23.0) category designations. Summaries of AEs, including the count and percentage of participants who experienced an AE, are provided.\nAn overview of treatment-emergent adverse events (TEAEs) is provided, including counts and percentages of participants (and event counts).\nListings are presented specifically for TEAEs, treatment-emergent serious adverse events (TESAEs), and TEAEs leading to discontinuation of study drug."}, "[5]": {"assay": "Phase 2 study: pharmacokinetics of obicetrapib", "assay_type": "in vivo, human", "details": "by 8 weeks after long-term daily dosing", "description": "Plasma obicetrapib concentrations will be summarized with descriptive statistics based on the PK Population. Exploration of any relationships with obicetrapib exposure will be performed, as appropriate.\nThe PK Population included all participants in the mITT Population who had sufficient blood samples collected for valid estimation of PK parameters."}, "LDL-C": {"tested_on": "LDL-C", "details": "cited from earlier work"}, "HDL-C": {"tested_on": "HDL-C", "details": "cited from earlier work"}, "CETP": {"biological_target": "T1, CETP (Homo sapiens, UniProt P11597)", "T1 construct": "from tissue; host or cells: plasma of the dosed clinical-study subjects (endogenous CETP)", "T1 sequence (P11597 18-493)": "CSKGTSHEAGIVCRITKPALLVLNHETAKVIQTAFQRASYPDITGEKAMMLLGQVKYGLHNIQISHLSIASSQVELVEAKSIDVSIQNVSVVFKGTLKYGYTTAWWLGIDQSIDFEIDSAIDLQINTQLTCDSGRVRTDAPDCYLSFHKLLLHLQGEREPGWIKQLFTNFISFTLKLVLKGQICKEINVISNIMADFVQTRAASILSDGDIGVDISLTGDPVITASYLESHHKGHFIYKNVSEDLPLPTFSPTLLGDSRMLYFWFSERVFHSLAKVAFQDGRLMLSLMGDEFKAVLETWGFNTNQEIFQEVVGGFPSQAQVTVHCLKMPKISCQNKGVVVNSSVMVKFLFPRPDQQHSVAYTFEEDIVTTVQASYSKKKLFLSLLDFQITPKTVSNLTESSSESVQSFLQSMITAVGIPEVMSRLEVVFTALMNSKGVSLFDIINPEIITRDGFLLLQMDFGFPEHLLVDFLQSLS", "details": "5 mg obicetrapib dose; healthy subjects and patients; multiple dose; cited from earlier work"}, "[6]": {"details": "mITT population, mild dyslipidaemia, oral once daily, Day 57"}, "[7]": {"details": "mITT population, oral once daily, baseline to Day 57"}, "[8]": {"details": "previous multiple-dose clinical studies, 5 mg obicetrapib dose, healthy subjects and patients"}}}
{"smiles": "CCOC(=O)N1c2ccc(C(F)(F)F)cc2[C@@H](N(Cc2cc(C(F)(F)F)cc(C(F)(F)F)c2)c2ncc(OCCCC(=O)O)cn2)C[C@H]1C", "note": "[Obicetrapib 5 mg]", "values": [{"measurement": "Number of participants that achieved LDL-C<70 mg/dL by Friedewald formula", "setting": "[1]; Day 57", "result": 7, "unit": "participants"}, {"measurement": "Number of participants that achieved LDL-C<100 mg/dL by Friedewald formula", "setting": "[1]; Day 57", "result": 16, "unit": "participants"}, {"measurement": "Percentage of participants that achieved LDL-C<70 mg/dL by Friedewald formula", "setting": "[1]; Day 57", "result": 25.0, "unit": "%"}, {"measurement": "Percentage of participants that achieved LDL-C<100 mg/dL by Friedewald formula", "setting": "[1]; Day 57", "result": 57.1, "unit": "%"}, {"measurement": "LDL-C by Friedewald formula at Day 57, mean", "setting": "[1]; [6]", "result": 87.0, "unit": "mg/dL"}, {"measurement": "LDL-C by Friedewald formula at Day 57, median", "setting": "[1]; [6]", "result": 87.0, "unit": "mg/dL"}, {"measurement": "Change from baseline to Day 57 in LDL-C by Friedewald formula, mean", "setting": "[1]; [7]", "result": -39.5, "unit": "mg/dL"}, {"measurement": "Change from baseline to Day 57 in LDL-C by Friedewald formula, median", "setting": "[1]; [7]", "result": -41.0, "unit": "mg/dL"}, {"measurement": "Percent change from baseline to Day 57 in LDL-C by Friedewald formula, mean", "setting": "[1]; [7]", "result": "−31.88", "unit": "%"}, {"measurement": "Percent change from baseline to Day 57 in LDL-C by Friedewald formula, median", "setting": "[1]; [7]", "result": "−34.40", "unit": "%"}, {"measurement": "Percent change from baseline in ApoB compared to placebo (in words)", "setting": "apolipoprotein B (ApoB); Day 57, compared to placebo", "result": "significant reductions"}, {"measurement": "ApoB at Day 57, mean", "setting": "apolipoprotein B (ApoB); [6]", "result": 78.3, "unit": "mg/dL"}, {"measurement": "ApoB at Day 57, median", "setting": "apolipoprotein B (ApoB); [6]", "result": 75.0, "unit": "mg/dL"}, {"measurement": "Change from baseline to Day 57 in ApoB, mean", "setting": "apolipoprotein B (ApoB); [7]", "result": -22.6, "unit": "mg/dL"}, {"measurement": "Change from baseline to Day 57 in ApoB, median", "setting": "apolipoprotein B (ApoB); [7]", "result": -24.0, "unit": "mg/dL"}, {"measurement": "Percent change from baseline to Day 57 in ApoB, mean", "setting": "apolipoprotein B (ApoB); [7]", "result": "−22.15", "unit": "%"}, {"measurement": "Percent change from baseline to Day 57 in ApoB, median", "setting": "apolipoprotein B (ApoB); [7]", "result": "−23.50", "unit": "%"}, {"measurement": "Percent change from baseline in non-HDL-C compared to placebo (in words)", "setting": "[2]", "result": "significant reductions"}, {"measurement": "Percent change from baseline in HDL-C compared to placebo (in words)", "setting": "[3]", "result": "significant increases"}, {"measurement": "Percent change from baseline in ApoE compared to placebo (in words)", "setting": "apolipoprotein E (ApoE)", "result": "significant increases"}, {"measurement": "Safety and tolerability (in words)", "setting": "[4]; 8 weeks of treatment, oral once daily", "result": "generally safe and well tolerated"}, {"measurement": "Participants who experienced at least 1 TEAE, number", "setting": "[4]; Safety Population", "result": 4, "unit": "participants"}, {"measurement": "Participants who experienced at least 1 TEAE, percentage", "setting": "[4]; Safety Population", "result": 14.3, "unit": "%"}, {"measurement": "Participants who experienced at least 1 study drug-related TEAE, number", "setting": "[4]; Safety Population", "result": 1, "unit": "participants"}, {"measurement": "Participants who experienced at least 1 study drug-related TEAE, percentage", "setting": "[4]; Safety Population", "result": 3.6, "unit": "%"}, {"measurement": "Participants with a TEAE with a maximum severity of moderate, number", "setting": "[4]; Safety Population", "result": 1, "unit": "participants"}, {"measurement": "Participants with a TEAE with a maximum severity of moderate, percentage", "setting": "[4]; Safety Population", "result": 3.6, "unit": "%"}, {"measurement": "Elimination of obicetrapib (in words)", "setting": "[5]", "result": "almost complete elimination"}, {"measurement": "Effect on LDL cholesterol concentrations (in words)", "setting": "LDL-C; Phase II trial TULIP, 10 mg and 5 mg obicetrapib as monotherapy", "result": "able to reduce LDL cholesterol concentrations"}, {"measurement": "Effect on LDL-C levels (in words)", "setting": "LDL-C; [8]", "result": "decreased"}, {"measurement": "Effect on HDL cholesterol concentration (in words)", "setting": "HDL-C; Phase II trial TULIP, mono-therapy and in combination with statins", "result": "increased considerably"}, {"measurement": "Effect on HDL-C levels (in words)", "setting": "HDL-C; [8]", "result": "increased"}, {"measurement": "CETP activity and concentrations (in words)", "setting": "CETP", "result": "effectively reduced"}]}
